Data set [1] has as its system Influenza virus A/Weiss/43 (H1N1) strain. Nature of the data set: Influenza virus cytopathy (CPE) experiment. Format: cell-based.
For data set [2], the system named is Influenza A virus H1N1 (H1N1 A/WSN/33 virus). As to the kind of experiment: Influenza A virus H1N1 mouse infection model (in vivo drug efficacy). As to conditions: H1N1 A/WSN/33 infected BALB/c mice, 10 mg/kg oral twice a day Day 1 to Day 7, first dose 36 hr after infection.
A short description of data set [3]: Solid stability test of crystal forms (high temperature, high humidity, light radiation, accelerated conditions; appearance, content, impurities, crystal form by XRPD). In kind it is physicochemical. The settings on record: for change of crystal form (XRPD detection): after the solid stability test conditions; for XPRD: crystal form found. An excerpt: High Performance Liquid Chromatograph (HPLC) The analytic method is as follows: [table] [table] […] The sample was placed under high temperature, high humidity and acceleration conditions. The bottle was sealed with an aluminum foil, and some small holes were pierced on the aluminum foil to ensure that the sample could fully contact with the ambient air. The sample placed under light radiation was placed upright at room temperature and open to the air. The sample was exposed to a light source, and radiated with sufficient energy prior to taking samples for detection. Samples were taken at various time points for analysis, and the detection results were compared with the initial detection results obtained at Day 0. The investigation items include appearance, content and impurities. […] The sample was placed under high temperature, high humidity and acceleration conditions. The bottle was sealed with an aluminum foil, and some small holes were pierced on the aluminum foil to ensure that the sample could fully contact with the ambient air. The sample placed under light radiation was placed upright at room temperature and open to the air. The sample was exposed to a light source, and radiated with sufficient energy prior to taking samples for detection. Samples were taken at various time points for analysis, and the detection results were compared with the initial detection results obtained at Day 0. The investigation items include appearance, content and impurities. […] Samples were taken at various time points, and the test results were compared with the initial test results obtained at Day 0. […] The investigation items include appearance, impurities, and crystal forms.

The mark [4] stands for this setting: Acceleration test (40° C./relative humidity 75%, open), Day 5.
The mark [5] stands for this setting: Acceleration test (40° C./relative humidity 75%, open), Day 10.
Where [6] appears, read: High humidity (room temperature/relative humidity 92.5%, open), Day 5.
The mark [7] stands for this setting: High humidity (room temperature/relative humidity 92.5%, open), Day 10.
Where [8] appears, read: High temperature (60° C., open), Day 5.
[9] abbreviates: High temperature (60° C., open), Day 10.
The mark [10] stands for this setting: Light radiation (total illumination 1.2 × 10^6 Lux · hr), Day 5.
The mark [11] stands for this setting: Light radiation (total illumination 1.2 × 10^6 Lux · hr), Day 10.
Where [12] appears, read: Acceleration test (40° C./relative humidity 75%, open), Day 12.
The mark [13] stands for this setting: High humidity (room temperature/relative humidity 92.5%, open), Day 12.
The mark [14] stands for this setting: High temperature (60° C., open), Day 12.
Setting [15] is: Light radiation (total illumination 1.2 × 10^6 Lux · hr), Day 12.
Where [16] appears, read: Acceleration test (40° C./relative humidity 75%, open), Day 30.
The mark [17] stands for this setting: High humidity (room temperature/relative humidity 92.5%, open), Day 30.
The mark [18] stands for this setting: High temperature (60° C., open), Day 30.

Compound `O=C(O)[C@H]1C2CCC(CC2)[C@@H]1Nc1nc(-c2n[nH]c3ncc(F)cc23)nc(C2CC2)c1F` [Compound 1] returned an EC50 in data set [1] (120 h, MDCK cells, influenza virus A/Weiss/43 (H1N1), 5 days, CCK8 cell viability) of 13 pM. Besides, in data set [1] (result in words), the “effect in the experiment of inhibiting influenza virus replication at a cell level” value was “positive effect”. Further, the “Rate of Weight Loss (Day 9)” value in data set [2] (Day 9) worked out at 4.8%. In addition, the “Survival Rate (%)” value in data set [2] (observed to Day 14) is recorded as 100%.

As to `O=C(O)[C@H]1C2CCC(CC2)[C@@H]1Nc1nc(-c2n[nH]c3ncc(F)cc23)nc(C2CC2)c1F` (single isomer, unassigned) [crystal form A], the Appearance result in data set [3] (setting [4]), in data set [3] (setting [5]), in data set [3] (Day 0 (initial)), in data set [3] (setting [6]), in data set [3] (setting [7]) and in data set [3] (setting [8]) was “Off-white solid” throughout. Besides, the Appearance result in data set [3] (setting [9]), in data set [3] (setting [10]) and in data set [3] (setting [11]) was “Off-white solid” each time. In addition, the “Content (%)” value in data set [3] (setting [5]) is reported as 98.36%; in data set [3] (Day 0 (initial)) it was 98.51%; in data set [3] (setting [7]), 98.25%; in data set [3] (setting [9]), 98.25%; in data set [3] (setting [11]), 96.89%. For the same compound, the “Total Impurities (%)” value in data set [3] (setting [5]) was found to be 1.64%; in data set [3] (Day 0 (initial)), 1.49%; in data set [3] (setting [7]) it was 1.75%; in data set [3] (setting [9]), 1.75%; in data set [3] (setting [11]) it was 3.11%. Further, the “change of crystal form (XRPD detection)” value in data set [3] is reported as “does not change”. Besides, the XPRD result in data set [3] (setting [5]), in data set [3] (Day 0 (initial)), in data set [3] (setting [7]), in data set [3] (setting [9]) and in data set [3] (setting [11]) was “Crystal form A” each time. Further, the “change in total impurity content” value in data set [3] (high temperature, high humidity and accelerated experiments) is “relatively small change”.

Regarding `O=C(O)[C@H]1C2CCC(CC2)[C@@H]1Nc1nc(-c2n[nH]c3ncc(F)cc23)nc(C2CC2)c1F` [crystal form D], the Appearance entry in data set [3] (setting [4]), in data set [3] (setting [12]), in data set [3] (Day 0 (initial)), in data set [3] (setting [6]), in data set [3] (setting [13]) and in data set [3] (setting [8]) was “Off-white solid” throughout. Further, the Appearance entry in data set [3] (setting [14]), in data set [3] (setting [10]) and in data set [3] (setting [15]) was “Off-white solid” in each case. The “Total Impurities (%)” value amounted to 3.5% in data set [3] (setting [12]); 3.3% in data set [3] (Day 0 (initial)); 3.4% in data set [3] (setting [13]); 3.3% in data set [3] (setting [14]); 3.4% in data set [3] (setting [15]). Besides, the “change of crystal form (XRPD detection)” value in data set [3] is reported as “does not change”. Further, the XPRD entry in data set [3] (setting [12]), in data set [3] (Day 0 (initial)), in data set [3] (setting [13]), in data set [3] (setting [14]) and in data set [3] (setting [15]) was “Crystal form D” in each case. Moreover, in data set [3] (high temperature, high humidity, light radiation and accelerated experiments), the “change in total impurity content” value was “almost no change”.

Regarding `O=C(O)[C@H]1C2CCC(CC2)[C@@H]1Nc1nc(-c2n[nH]c3ncc(F)cc23)nc(C2CC2)c1F` [crystal form G], the Appearance entry in data set [3] (setting [4]), in data set [3] (setting [16]), in data set [3] (Day 0 (initial)), in data set [3] (setting [6]), in data set [3] (setting [17]) and in data set [3] (setting [8]) was “Off-white solid” throughout. Besides, the Appearance result in data set [3] (setting [18]) is given as “Off-white solid”; in data set [3] (setting [10]) it was “Off-white solid”; in data set [3] (setting [15]), “Yellowish solid”. For the same compound, the “Total Impurities (%)” value in data set [3] (setting [16]) stood at 0.35%; in data set [3] (Day 0 (initial)), 0.35%; in data set [3] (setting [17]), 0.33%; in data set [3] (setting [18]), 0.42%; in data set [3] (setting [15]), 0.54%. The “change of crystal form (XRPD detection)” value in data set [3] is on record as “does not change”. Besides, the XPRD result in data set [3] (setting [16]), in data set [3] (Day 0 (initial)), in data set [3] (setting [17]), in data set [3] (setting [18]) and in data set [3] (setting [15]) was “Crystal form G” in each case. Further, the “change in total impurity content” value is “almost no change” in data set [3] (high humidity and accelerated experiments); “relatively small change” in data set [3] (high temperature).

For `O=C(O)[C@H]1C2CCC(CC2)[C@@H]1Nc1nc(-c2n[nH]c3ncc(F)cc23)nc(C2CC2)c1F` (single isomer, unassigned) [crystal form B], the Appearance entry in data set [3] (Day 0 (initial)), in data set [3] (setting [6]), in data set [3] (setting [7]), in data set [3] (setting [8]), in data set [3] (setting [9]) and in data set [3] (setting [10]) was “Off-white” each time. Besides, in data set [3] (setting [11]), the Appearance result is “Off-white”. Also, the “Content (%)” value is listed as 98.89% in data set [3] (Day 0 (initial)); 98.92% in data set [3] (setting [6]); 98.90% in data set [3] (setting [7]); 98.91% in data set [3] (setting [8]); 98.89% in data set [3] (setting [9]); 98.03% in data set [3] (setting [11]). Also, the “Total Impurities (%)” value in data set [3] (Day 0 (initial)) was 1.11%; in data set [3] (setting [6]) it was 1.08%; in data set [3] (setting [7]) it was 1.10%; in data set [3] (setting [8]), 1.09%; in data set [3] (setting [9]), 1.11%; in data set [3] (setting [11]), 1.97%. Besides, the “change in total impurity” value in data set [3] (accelerated experiments) is listed as “relatively small change”. Moreover, in data set [3], the “change of crystal form (XRPD detection)” value is “does not change”. Besides, the XPRD result in data set [3] (Day 0 (initial)), in data set [3] (setting [7]), in data set [3] (setting [9]) and in data set [3] (setting [11]) was “Crystal form B” each time. Besides, the “change in total impurity content” value in data set [3] (high temperature, high humidity) is listed as “almost no change”.
